Test results from patent publication US11696913B2, “Prolonged ectoparasite-controlling agent for animal” (MITSUI CHEMICALS AGRO, INC., priority 2017, dated 2023).

Columns and labels:
Ctenocephalides felis [1] = test: Ctenocephalides felis in-vitro feeding test with fleas (CTECFE oral); settings: 48 hours, read-out: insecticidal feeding activity; for pest or weed control at 0.032 ppm: dose 0.032 ppm in citrated cattle blood; for pest or weed control at 0.16 ppm: dose 0.16 ppm in citrated cattle blood; for pest or weed control at 0.8 ppm: dose 0.8 ppm in citrated cattle blood; for pest or weed control at 4 ppm: dose 4 ppm in citrated cattle blood; for pest or weed control at 0.0064 ppm: dose 0.0064 ppm in citrated cattle blood
Procedure: Ctenocephalides felis In-Vitro Feeding Test with Fleas (CTECFE Oral)
To prepare a test blood mixture for feeding fleas, the test substance was dissolved in dimethyl sulphoxide and diluted with citrated cattle blood to the desired concentration.
To assemble the test set-up, about 20 unfed adult male and female cat fleas
(Ctenocephalides felis) were placed in a chamber which was closed at the top and bottom with gauze. A metal cylinder was sealed at one end with parafilm membrane, placed with the sealed base onto the chamber, and filled with the test blood mixture, which could be imbibed by the fleas through the parafilm membrane. The assembled test set-up was maintained at about 37° C. After 48 hours, the insecticidal feeding activity against fleas was determined. 100% means that all of the fleas were killed; 0% means that none of the fleas was killed.

Dermacentor variabilis = test: In vitro contact test with adult hard ticks (Dermacentor variabilis); settings: read-out: acaricidal activity; for pest or weed control at 0.2 µg/cm2, 0.2 µg/cm2: dose 0.2 μg/cm^2, 48 h; for pest or weed control at 1 µg/cm2, 1 µg/cm2: dose 1 μg/cm^2, 48 h
Procedure: (§1) In Vitro Contact Tests with Adult Hard Ticks
(§2) In vitro contact tests with ticks were conducted with adult males and females of Rhipicephalus sanguineus, Ixodes ricinus, or Dermacentor variabilis, or nymphs of Amblyomma americanum.
(§3) For the coating of the test vials, the test substance was dissolved and diluted in acetone p.a. to the desired concentration. The solution was then homogeneously applied to the inner wall and base of a glass vial by turning and rocking on an orbital shaker until complete evaporation of the solvent. For example, with a 900 ppm solution of test substance, an area-based dose of 5 μg/cm^2 was achieved.
(§4) After the solvent was completely evaporated, 5-10 adult ticks were put in each coated test vial, which was then sealed with a perforated plastic lid and incubated in a horizontal position in the dark at room temperature and ambient humidity (Rhipicephalus sanguineus) or in a climate-controlled cabinet (Ixodes ricinus, Dermacentor variabilis, Amblyomma americanum [21° C., 85% rel. hum.]). Acaricidal activity against the respective tick species was determined after 48 h. For this, ticks were collected to the base of the test vial by gentle knocking, and test vials were then incubated on a hotplate at 45-50° C. for no longer than 5 min. Ticks which remained motionless on the base of the test vial or moved uncoordinated without deliberately climbing up to avoid the heat were considered dead or moribund, respectively.
(§5) A substance was judged to have good acaricidal activity against the respective tick species when at least 80% of ticks were found dead or moribund at a dose of the substance of g/cm^2. An acaricidal activity of 100% means all ticks were dead or moribund. An acaricidal activity of 0% means none of the ticks was found dead or moribund.

Rhipicephalus sanguineus = test: In vitro contact test with adult hard ticks (Rhipicephalus sanguineus); settings: read-out: acaricidal activity; for pest or weed control at 0.04 µg/cm2, 0.04 µg/cm2: dose 0.04 μg/cm^2, 48 h; for pest or weed control at 0.2 µg/cm2, 0.2 µg/cm2: dose 0.2 μg/cm^2, 48 h; for pest or weed control at 1 µg/cm2, 1 µg/cm2: dose 1 μg/cm^2, 48 h
Procedure: as §1, §2, §3, §4, §5

[2] = test system: Rhipicephalus (Boophilus) microplus; test: In vitro injection test with Rhipicephalus (Boophilus) microplus (BOOPMI Inj); settings: 168 h, laid fertile eggs after 7 days, read-out: acaricidal activity; for pest or weed control at 32 ng: dose 0.032 μg/animal injected; for pest or weed control at 0.00016 mg: dose 0.16 μg/animal injected; for pest or weed control at 0.0008 mg: dose 0.8 μg/animal injected; for pest or weed control at 6.4 ng: dose 0.0064 μg/animal injected
Procedure: In Vitro Injection Test with Rhipicephalus (Boophilus) Microplus (BOOPMI Inj)
To produce an appropriate mixture for injection, the test substance was dissolved and diluted in dimethyl sulphoxide to the desired concentration. 1 μl of the test mixture was injected into the abdomen of each of 5 engorged adult female cattle ticks (Rhipicephalus (Boophilus) microplus). The ticks were transferred into petri dishes and maintained in a climate-controlled room [28° C., 85% rel. hum.].
Acaricidal activity against cattle ticks was assessed after 7 days by assessment of laid fertile eggs. […] An acaricidal activity of 100% means that none of the ticks laid eggs or laid eggs were infertile; 0% means that the ticks laid eggs, and all the eggs were fertile.

Ixodes ricinus = test: In vitro contact test with adult hard ticks (Ixodes ricinus); settings: read-out: acaricidal activity; for pest or weed control at 0.2 µg/cm2, 0.2 µg/cm2: dose 0.2 μg/cm^2, 48 h; for pest or weed control at 1 µg/cm2, 1 µg/cm2: dose 1 μg/cm^2, 48 h; for pest or weed control at 5 µg/cm2, 5 µg/cm2: dose 5 μg/cm^2, 48 h
Procedure: as §1, §2, §3, §4, §5

Amblyomma americanum = test: In vitro contact test with hard ticks (Amblyomma americanum nymphs); settings: read-out: acaricidal activity; for pest or weed control at 0.2 µg/cm2, 0.2 µg/cm2: dose 0.2 μg/cm^2, 48 h; for pest or weed control at 1 µg/cm2, 1 µg/cm2: dose 1 μg/cm^2, 48 h
Procedure: as §1, §2, §3, §4, §5

Ctenocephalides felis [3] = test: In vitro contact test with fleas; settings: read-out: insecticidal activity; for pest or weed control at 0.2 µg/cm2, 0.2 µg/cm2: dose 0.2 μg/cm^2, dead or moribund fleas after 48 h; for pest or weed control at 1 µg/cm2, 1 µg/cm2: dose 1 μg/cm^2, dead or moribund fleas after 48 h; for pest or weed control at 0.04 µg/cm2, 0.04 µg/cm2: dose 0.04 μg/cm^2, dead or moribund fleas after 48 h
Procedure: In Vitro Contact Tests with Fleas
In vitro contact tests with fleas were conducted with adult male and female cat fleas (Ctenocephalides felis).
as §3, with “To coat” for “For the coating of”, “tubes,” for “vials,”, “tube” for “vial”
Upon complete evaporation of the solvent, 5-10 adult cat fleas (Ctenocephalides felis) were added to each coated tube, which was then sealed with a perforated plastic lid and incubated in a horizontal position at room temperature and ambient humidity. After 48 h, insecticidal activity against fleas was determined. For this, fleas were collected to the base of the tube by knocking the tube, and the tube was allowed to stand upright. Fleas which remained motionless at the base or moved in an uncoordinated manner were considered dead or moribund, respectively.
A substance was judged to have good insecticidal activity against Ctenocephalides felis when at least 80% of the fleas were found dead or moribund at a dose of the substance of μg/cm^2. 100% insecticidal activity means that all the fleas were found dead or moribund. 0% insecticidal activity means that no fleas were found dead or moribund.

| Compound | pest or weed control at 0.032 ppm (Ctenocephalides felis [1]) | pest or weed control at 0.16 ppm (Ctenocephalides felis [1]) | pest or weed control at 0.8 ppm (Ctenocephalides felis [1]) | pest or weed control at 4 ppm (Ctenocephalides felis [1]) | pest or weed control at 0.2 µg/cm2, 0.2 µg/cm2 (Dermacentor variabilis) | pest or weed control at 1 µg/cm2, 1 µg/cm2 (Dermacentor variabilis) | pest or weed control at 0.04 µg/cm2, 0.04 µg/cm2 (Rhipicephalus sanguineus) | pest or weed control at 0.2 µg/cm2, 0.2 µg/cm2 (Rhipicephalus sanguineus) | pest or weed control at 1 µg/cm2, 1 µg/cm2 (Rhipicephalus sanguineus) | pest or weed control at 32 ng [2] | pest or weed control at 0.00016 mg [2] | pest or weed control at 0.0008 mg [2] | pest or weed control at 0.2 µg/cm2, 0.2 µg/cm2 (Ixodes ricinus) | pest or weed control at 1 µg/cm2, 1 µg/cm2 (Ixodes ricinus) | pest or weed control at 5 µg/cm2, 5 µg/cm2 (Ixodes ricinus) | pest or weed control at 0.2 µg/cm2, 0.2 µg/cm2 (Amblyomma americanum) | pest or weed control at 1 µg/cm2, 1 µg/cm2 (Amblyomma americanum) | pest or weed control at 0.2 µg/cm2, 0.2 µg/cm2 (Ctenocephalides felis [3]) | pest or weed control at 1 µg/cm2, 1 µg/cm2 (Ctenocephalides felis [3]) | pest or weed control at 0.0064 ppm (Ctenocephalides felis [1]) | also measured |
| --- | --- | --- | --- | --- | --- | --- | --- | --- | --- | --- | --- | --- | --- | --- | --- | --- | --- | --- | --- | --- | --- |
| N#Cc1ccc(C(=O)Nc2cccc(C(=O)Nc3c(Br)cc(C(F)(C(F)(F)F)C(F)(F)F)cc3OC(F)(F)F)c2F)cc1 [Compound 13] | 95% | 95% | 95% | 95% | 90% | 90% | 90% | 90% | 90% | 100% | 100% | 100% | 90% | 90% | 90% | 90% | 90% | 95% | 95% |  |  |
| N#Cc1ccc(C(=O)Nc2cccc(C(=O)Nc3c(Br)cc(C(F)(C(F)(F)F)C(F)(F)F)cc3C(F)(F)F)c2F)cc1 [Compound 16] | 95% | 95% | 95% | 95% | 90% | 90% | 90% | 90% | 90% |  | 100% | 100% | 90% | 90% | 90% | 90% | 90% | 95% | 95% | 95% | pest or weed control at 0.04 µg/cm2, 0.04 µg/cm2 (Ctenocephalides felis [3]): 95% |
| CN(C(=O)c1ccc(F)cc1)c1cccc(C(=O)Nc2c(Br)cc(C(F)(C(F)(F)F)C(F)(F)F)cc2C(F)(F)F)c1F [Compound 26] |  |  | 95% | 95% | 90% | 90% |  |  | 90% | 100% | 100% | 100% |  | 90% | 90% | 90% | 90% | 95% | 95% |  | pest or weed control at 0.04 µg/cm2, 0.04 µg/cm2 (Ctenocephalides felis [3]): 95% |
| N#Cc1ccc(C(=O)Nc2cccc(C(=O)Nc3c(I)cc(C(F)(C(F)(F)F)C(F)(F)C(F)(F)F)cc3C(F)(F)F)c2F)cc1 (stereo not drawn) [Compound 34] | 95% | 95% | 95% | 95% | 90% | 90% |  | 90% | 90% | 100% | 100% | 100% |  | 90% | 90% | 90% | 90% | 95% | 95% | 95% | pest or weed control at 0.04 µg/cm2, 0.04 µg/cm2 (Dermacentor variabilis; dose 0.04 μg/cm^2, 48 h): 90%; pest or weed control at 6.4 ng [2]: 100% |
| O=C(Nc1cccc(C(=O)Nc2c(I)cc(C(F)(C(F)(F)F)C(F)(F)C(F)(F)F)cc2C(F)(F)F)c1F)c1ccc(F)cc1 (stereo not drawn) [Compound 35] | 95% | 95% | 95% | 95% | 90% | 90% | 90% | 90% | 90% | 100% | 100% | 100% | 90% | 90% | 90% | 90% | 90% | 95% | 95% |  | pest or weed control at 6.4 ng [2]: 100%; pest or weed control at 0.04 µg/cm2, 0.04 µg/cm2 (Amblyomma americanum; dose 0.04 μg/cm^2, 48 h): 90% |
| N#Cc1ccc(C(=O)Nc2cccc(C(=O)Nc3c(Br)cc(C(F)(C(F)(F)F)C(F)(F)F)cc3OC(F)(F)F)c2)cc1 [Compound 9] |  |  | 95% | 95% | 90% | 90% |  | 90% |  |  | 100% | 100% | 90% | 90% | 90% |  | 90% | 95% | 95% |  |  |
